Experimental data published in patent publication US20170128519A1, “CASPASE INHIBITORS FOR THE TREATMENT OF COLORECTAL CANCER” (Conatus Pharmaceuticals, Inc., priority 2015, published 2017).

Test system: HT-29 cells
Experiment: crystal violet assay of adherent HT-29 cells after 5-FU treatment
Assay type: cell-based, human
Procedure: 5-Fluoruracil (5-FU) was from Sigma Aldrich, Necrostatin-1 was from Enzo Life Sciences. HAT-29 human CRC cell line was obtained from ATCC after cell line authentication utilizing short tandem repeat (STR) profiling. Within four weeks all cell lines were expanded and frozen in aliquots. Cell lines were reauthenticated and regularly tested for contamination as provided by the German Cancer Research Center (DKFZ) Core Facility (Heidelberg). Cells were cultured in RPMI-1640 medium (Biochrom) containing 10% FCS (PAA Laboratories) and 1% penicillin/streptomycin at 5% CO2 and 37° C.
HT-29 cells were incubated with 20 μM IDN-7314 and/or 20 μM Necrostatin (N) for 2 hours prior to treatment with 5-Fluoruracil (5-FU, 50 or 100 mg/ml). After 48 hours, the number of adherent cells was determined via crystal violet assay (RLU=relative light units). […] This effect could be abolished by the RIP1-specific kinase inhibitor, necrostatin, the reduced number of cells is due to induction of necrotic cell death.

| Compound | number of adherent cells (crystal violet assay, RLU) (20 μM IDN-7314 for 2 hours prior to 5-FU (50 or 100 mg/ml), read after 48 hours) | sensitization of colon cancer cells to chemotherapy-induced necrotic cell death (FIG. 1) (IDN-7314 with 5-FU) | effect of necrostatin on the reduction of adherent cells by IDN-7314 co-treatment (20 μM Necrostatin with 20 μM IDN-7314 for 2 hours prior to 5-FU (50 or 100 mg/ml), 48 hours) |
| --- | --- | --- | --- |
| C[C@H](NC(=O)C(=O)Nc1c(F)cccc1F)C(=O)N[C@@H](CC(=O)O)C(=O)COc1c(F)c(F)cc(F)c1F [IDN-7314] | significantly reduced the number of adherent cells | sensitizes colon cancer cells to chemotherapy-induced necrotic cell death |  |
| CN1C(=O)C(Cc2c[nH]c3ccccc23)NC1=S (stereo not drawn) [necrostatin, Necrostatin-1, reference compound] |  |  | abolished |
